ChEMBL document CHEMBL3045788, “Effect of abamectin on root-knot nematodes and tomato yield” (Pest Manag Sci, 2012)
The source made the active and inactive calls. The rule behind the calls is not given here.

Columns and labels:
[1] = tested on: Meloidogyne incognita; test: Nematicidal activity against second-stage juvenile Meloidogyne incognita (root-knot nematode) infested tomato field assessed as reduction in number of nematodes in soil at 7.5 L/hectare measured after 40 days; format: functional, organism-based
[2] = tested on: Meloidogyne incognita; test: Nematicidal activity against second-stage juvenile Meloidogyne incognita (root-knot nematode) infested tomato plant under greenhouse condition assessed as fresh root weight at 7.5 L/hectare measured after 30 days; format: functional
[3] = tested on: Meloidogyne incognita; test: Nematicidal activity against second-stage juvenile Meloidogyne incognita (root-knot nematode) infested tomato plant under greenhouse condition assessed as fresh root weight at 5 L/hectare measured after 30 days; format: functional
[4] = tested on: Meloidogyne incognita; test: Nematicidal activity against second-stage juvenile Meloidogyne incognita (root-knot nematode) infested tomato field assessed as medium fruit yield at 7.5 L/hectare; format: functional
[5] = tested on: Meloidogyne incognita; test: Nematicidal activity against second-stage juvenile Meloidogyne incognita (root-knot nematode) infested tomato field assessed as marketable yield at 5 L/hectare; format: functional
[6] = tested on: Meloidogyne incognita; test: Nematicidal activity against second-stage juvenile Meloidogyne incognita (root-knot nematode) infested tomato field assessed as plant vigour at 10 L/hectare measured after 30 days; format: functional
[7] = tested on: Meloidogyne incognita; test: Nematicidal activity against second-stage juvenile Meloidogyne incognita (root-knot nematode) infested tomato plant under greenhouse condition assessed as plant height at 5 L/hectare measured after 30 days; format: functional
[8] = tested on: Meloidogyne incognita; test: Nematicidal activity against second-stage juvenile Meloidogyne incognita (root-knot nematode) infested tomato field assessed as marketable yield at 10 L/hectare; format: functional
[9] = tested on: Meloidogyne incognita; test: Nematicidal activity against second-stage juvenile Meloidogyne incognita (root-knot nematode) infested tomato field assessed as reduction in number of nematodes in soil at 10 L/hectare measured after 60 days; format: functional, organism-based
[10] = tested on: Meloidogyne incognita; test: Nematicidal activity against second-stage juvenile Meloidogyne incognita (root-knot nematode) infested tomato field assessed as plant height at 5 L/hectare measured after 30 days; format: functional
[11] = tested on: Meloidogyne incognita; test: Nematicidal activity against second-stage juvenile Meloidogyne incognita (root-knot nematode) infested tomato plant under greenhouse condition assessed as fresh root weight at 10 L/hectare measured after 30 days; format: functional
[12] = tested on: Meloidogyne incognita; test: Nematicidal activity against second-stage juvenile Meloidogyne incognita (root-knot nematode) assessed as mortality after 48 hr; format: functional
[13] = tested on: Meloidogyne incognita; test: Nematicidal activity against second-stage juvenile Meloidogyne incognita (root-knot nematode) infested tomato plant under greenhouse condition assessed as plant vigour at 5 L/hectare measured after 30 days; format: functional
[14] = tested on: Meloidogyne incognita; test: Nematicidal activity against second-stage juvenile Meloidogyne incognita (root-knot nematode) infested tomato field assessed as plant height at 10 L/hectare measured after 50 days; format: functional
[15] = tested on: Meloidogyne incognita; test: Nematicidal activity against second-stage juvenile Meloidogyne incognita (root-knot nematode) infested tomato field assessed as reduction in number of nematodes in soil at 5 L/hectare measured after 20 days; format: functional, organism-based
[16] = tested on: Meloidogyne incognita; test: Nematicidal activity against second-stage juvenile Meloidogyne incognita (root-knot nematode) infested tomato plant under greenhouse condition assessed as reduction in root galling index at 10 L/hectare measured after 30 days; format: functional, organism-based
[17] = tested on: Meloidogyne incognita; test: Nematicidal activity against second-stage juvenile Meloidogyne incognita (root-knot nematode) infested tomato plant under greenhouse condition assessed as plant height at 10 L/hectare measured after 30 days; format: functional
[18] = tested on: Meloidogyne incognita; test: Nematicidal activity against second-stage juvenile Meloidogyne incognita (root-knot nematode) infested tomato field assessed as reduction in number of nematodes in soil at 10 L/hectare measured after 40 days; format: functional, organism-based
[19] = tested on: Meloidogyne incognita; test: Nematicidal activity against second-stage juvenile Meloidogyne incognita (root-knot nematode) infested tomato plant under greenhouse condition assessed as plant vigour at 10 L/hectare measured after 30 days; format: functional
[20] = tested on: Meloidogyne incognita; test: Nematicidal activity against second-stage juvenile Meloidogyne incognita (root-knot nematode) infested tomato field assessed as large fruit yield at 7.5 L/hectare; format: functional
[21] = tested on: Meloidogyne incognita; test: Nematicidal activity against second-stage juvenile Meloidogyne incognita (root-knot nematode) infested tomato field assessed as plant height at 10 L/hectare measured after 30 days; format: functional
[22] = tested on: Meloidogyne incognita; test: Nematicidal activity against second-stage juvenile Meloidogyne incognita (root-knot nematode) infested tomato field assessed as reduction in number of nematodes in soil at 7.5 L/hectare measured after 20 days; format: functional, organism-based
[23] = tested on: Meloidogyne incognita; test: Nematicidal activity against second-stage juvenile Meloidogyne incognita (root-knot nematode) infested tomato field assessed as medium fruit yield at 5 L/hectare; format: functional
[24] = tested on: Meloidogyne incognita; test: Nematicidal activity against second-stage juvenile Meloidogyne incognita (root-knot nematode) infested tomato field assessed as reduction in number of nematodes in soil at 7.5 L/hectare measured after 60 days; format: functional, organism-based
[25] = tested on: Meloidogyne incognita; test: Nematicidal activity against second-stage juvenile Meloidogyne incognita (root-knot nematode) infested tomato field assessed as plant height at 7.5 L/hectare measured after 50 days; format: functional
[26] = tested on: Meloidogyne incognita; test: Nematicidal activity against second-stage juvenile Meloidogyne incognita (root-knot nematode) infested tomato field assessed as plant vigour at 7.5 L/hectare measured after 30 days; format: functional
[27] = tested on: Meloidogyne incognita; test: Nematicidal activity against second-stage juvenile Meloidogyne incognita (root-knot nematode) infested tomato field assessed as reduction in root galling index at 5 L/hectare measured after 30 days; format: functional, organism-based
[28] = tested on: Meloidogyne incognita; test: Nematicidal activity against second-stage juvenile Meloidogyne incognita (root-knot nematode) infested tomato field assessed as extra-large fruit yield at 5 L/hectare; format: functional
[29] = tested on: Meloidogyne incognita; test: Nematicidal activity against second-stage juvenile Meloidogyne incognita (root-knot nematode) infested tomato field assessed as reduction in root galling index at 10 L/hectare measured after 30 days; format: functional, organism-based
[30] = tested on: Meloidogyne incognita; test: Nematicidal activity against second-stage juvenile Meloidogyne incognita (root-knot nematode) infested tomato field assessed as plant vigour at 5 L/hectare measured after 30 days; format: functional
[31] = tested on: Meloidogyne incognita; test: Nematicidal activity against second-stage juvenile Meloidogyne incognita (root-knot nematode) infested tomato field assessed as reduction in number of nematodes in soil at 10 L/hectare measured after 20 days; format: functional, organism-based
[32] = tested on: Meloidogyne incognita; test: Nematicidal activity against second-stage juvenile Meloidogyne incognita (root-knot nematode) infested tomato field assessed as large fruit yield at 10 L/hectare; format: functional
[33] = tested on: Meloidogyne incognita; test: Nematicidal activity against second-stage juvenile Meloidogyne incognita (root-knot nematode) infested tomato field assessed as reduction in root galling index at 7.5 L/hectare measured after 30 days; format: functional, organism-based
[34] = tested on: Meloidogyne incognita; test: Nematicidal activity against second-stage juvenile Meloidogyne incognita (root-knot nematode) infested tomato field assessed as extra-large fruit yield at 7.5 L/hectare; format: functional
[35] = tested on: Meloidogyne incognita; test: Nematicidal activity against second-stage juvenile Meloidogyne incognita (root-knot nematode) infested tomato plant under greenhouse condition assessed as reduction in root galling index at 5 L/hectare measured after 30 days; format: functional, organism-based
[36] = tested on: Meloidogyne incognita; test: Nematicidal activity against second-stage juvenile Meloidogyne incognita (root-knot nematode) infested tomato field assessed as extra-large fruit yield at 10 L/hectare; format: functional
[37] = tested on: Meloidogyne incognita; test: Nematicidal activity against second-stage juvenile Meloidogyne incognita (root-knot nematode) infested tomato field assessed as plant height at 5 L/hectare measured after 50 days; format: functional
[38] = tested on: Meloidogyne incognita; test: Nematicidal activity against second-stage juvenile Meloidogyne incognita (root-knot nematode) infested tomato plant under greenhouse condition assessed as reduction in root galling index at 7.5 L/hectare measured after 30 days; format: functional, organism-based
[39] = tested on: Meloidogyne incognita; test: Nematicidal activity against second-stage juvenile Meloidogyne incognita (root-knot nematode) infested tomato field assessed as reduction in number of nematodes in soil at 5 L/hectare measured after 60 days; format: functional, organism-based
[40] = tested on: Meloidogyne incognita; test: Nematicidal activity against second-stage juvenile Meloidogyne incognita (root-knot nematode) infested tomato plant under greenhouse condition assessed as plant height at 7.5 L/hectare measured after 30 days; format: functional
[41] = tested on: Meloidogyne incognita; test: Nematicidal activity against second-stage juvenile Meloidogyne incognita (root-knot nematode) infested tomato field assessed as reduction in number of nematodes in soil at 5 L/hectare measured after 40 days; format: functional, organism-based
[42] = tested on: Meloidogyne incognita; test: Nematicidal activity against Meloidogyne incognita (root-knot nematode) assessed as per seed; format: functional, organism-based
[43] = tested on: Meloidogyne incognita; test: Nematicidal activity against second-stage juvenile Meloidogyne incognita (root-knot nematode) infested tomato field assessed as large fruit yield at 5 L/hectare; format: functional
[44] = tested on: Meloidogyne incognita; test: Nematicidal activity against second-stage juvenile Meloidogyne incognita (root-knot nematode) infested tomato plant under greenhouse condition assessed as plant vigour at 7.5 L/hectare measured after 30 days; format: functional
[45] = tested on: Meloidogyne incognita; test: Nematicidal activity against second-stage juvenile Meloidogyne incognita (root-knot nematode) infested tomato field assessed as marketable yield at 7.5 L/hectare; format: functional
[46] = tested on: Meloidogyne incognita; test: Nematicidal activity against second-stage juvenile Meloidogyne incognita (root-knot nematode) infested tomato field assessed as medium fruit yield at 10 L/hectare; format: functional
[47] = tested on: Meloidogyne incognita; test: Nematicidal activity against second-stage juvenile Meloidogyne incognita (root-knot nematode) infested tomato field assessed as plant height at 7.5 L/hectare measured after 30 days; format: functional

`CC[C@H](C)[C@H]1O[C@]2(C=C[C@@H]1C)C[C@@H]1C[C@@H](C/C=C(\C)[C@@H](O[C@H]3C[C@H](OC)[C@@H](O[C@H]4C[C@H](OC)[C@@H](O)[C@H](C)O4)[C@H](C)O3)[C@@H](C)/C=C/C=C3\CO[C@@H]4[C@H](O)C(C)=C[C@@H](C(=O)O1)[C@]34O)O2.CO[C@H]1C[C@H](O[C@H]2[C@H](C)O[C@@H](O[C@@H]3/C(C)=C/C[C@@H]4C[C@@H](C[C@]5(C=C[C@H](C)[C@@H](C(C)C)O5)O4)OC(=O)[C@@H]4C=C(C)[C@@H](O)[C@H]5OC/C(=C\C=C\[C@@H]3C)[C@]54O)C[C@@H]2OC)O[C@@H](C)[C@@H]1O` [ABAMECTIN] was tested, and the Activity [1] was “Active”, the Activity [2] was 1.09 g and the Activity [3] was 0.98 g. It also gave an Activity [4] of 39.5%, an Activity [5] of 59.4% and an Activity [6] of 92%. The Activity [7] was 35.4 cm, the Activity [8] was 69.2% and the Activity [9] was “Active”. For the same molecule, the Activity [10] was 32.4 cm, the Activity [11] was 1.14 g and the LC50 [12] was 7.06 mgAi/L. It also gave an LC90 [12] of 21.81 mgAi/L, an Activity [13] of 85% and an Activity [14] of 102.8 cm. For the same molecule, the Activity [15] was “Active”, the Activity [16] was “Active” and the Activity [17] was 39.2 cm. The Activity [18] was “Active”, the Activity [19] was 92% and the Activity [20] was 18.1%. For the same molecule, the Activity [21] was 39.1 cm, the Activity [22] was “Active” and the Activity [23] was 36.7%. The Activity [24] was “Active”, the Activity [25] was 98.6 cm and the Activity [26] was 87%. The Activity [27] was “Active”, the Activity [28] was 5.3% and the Activity [29] was “Active”. The Activity [30] was 85%, the Activity [31] was “Active” and the Activity [32] was 20.6%. The Activity [33] was “Active”, the Activity [34] was 5.8% and the Activity [35] was “Active”. For the same molecule, the Activity [36] was 7.3%, the Activity [37] was 94.3 cm and the Activity [38] was “Active”. The Activity [39] was “Active”, the Activity [40] was 37.5 cm and the Activity [41] was “Active”. The EC50 [42] was 0.016 mgAi, the EC80 [42] was 0.28 mgAi and the Activity [43] was 17.4%. The Activity [44] was 87%, the Activity [45] was 63.4% and the Activity [46] was 41.3%. The Activity [47] was 35.9 cm.
